Results on twelve molecules are retold here after ChEMBL document CHEMBL1151865, “New developments for the design, synthesis and biological evaluation of potent SARS-CoV 3CL(pro) inhibitors” (Bioorg Med Chem Lett, 2009).

Each structure is given as a SMILES string.

This test deals with Replicase polyprotein 1ab (Severe acute respiratory syndrome-related coronavirus, UniProt P0C6X7). The test can be described thus: Inhibition of SARS coronavirus 3CL protease pretreated for 10 mins before substrate addition.

For the molecule `CCCN(CCC)C(=O)CC[C@H](NC(=O)[C@H](CC(C)C)NC(=O)[C@@H](NC(=O)[C@H](C)NC(=O)OCc1ccccc1)C(C)C)C(=O)C(F)(F)F`, the Ki is 297 µM.

With `CCN(CC)C(=O)CC[C@H](NC(=O)[C@H](CC(C)C)NC(=O)[C@@H](NC(=O)OCc1ccccc1)C(C)C)C(=O)c1nc2ccccc2s1`, the Ki was determined as 49.3 µM. Regarding `CCCN(CCC)C(=O)CC[C@H](NC(=O)[C@H](CC(C)C)NC(=O)[C@@H](NC(=O)OCc1ccccc1)C(C)C)C(=O)C(F)(F)F`, the Ki worked out at 363 µM.

`CC(C)C[C@H](NC(=O)[C@@H](NC(=O)OCc1ccccc1)C(C)C)C(=O)N[C@@H](CCC(=O)c1nccs1)C(=O)c1nccs1`: the Ki was found to be 45.2 µM. `CCCN(CCC)C(=O)CC[C@H](NC(=O)[C@H](CC(C)C)NC(=O)OCc1ccccc1)C(=O)C(F)(F)F`: the Ki is 584 µM. Take `CCN(CC)C(=O)CC[C@H](NC(=O)[C@H](CC(C)C)NC(=O)OCc1ccccc1)C(=O)c1nccs1`: the Ki was found to be 462 µM.

Take `CC(C)C[C@H](NC(=O)[C@@H](NC(=O)OCc1ccccc1)C(C)C)C(=O)N[C@@H](CCC(=O)N1CCOCC1)C(=O)C(F)(F)F`: the Ki was 21 µM. For `CC(C)C[C@H](NC(=O)[C@@H](NC(=O)OCc1ccccc1)C(C)C)C(=O)N[C@@H](CCC(=O)N1CCOCC1)C(=O)c1nccs1`, the Ki amounted to 478 µM.

`CC(C)C[C@H](NC(=O)[C@@H](NC(=O)OCc1ccccc1)C(C)C)C(=O)N[C@@H](CCC(=O)N(C)Cc1ccccc1)C(=O)C(F)(F)F`: the Ki stood at 34.1 µM. To `CCN(CC)C(=O)CC[C@H](NC(=O)[C@H](CC(C)C)NC(=O)[C@@H](NC(=O)OCc1ccccc1)C(C)C)C(=O)c1nccs1` belongs 112 µM; to `CCN(CC)C(=O)CC[C@H](NC(=O)[C@@H](NC(=O)OCc1ccccc1)C(C)C)C(=O)c1nccs1`, 614 µM. Regarding `CCN(CC)C(=O)CC[C@H](NC(=O)[C@@H](NC(=O)OCc1ccccc1)C(C)C)C(=O)c1nc2ccccc2s1`, the Ki was 159 µM.
